From patent EP4559922A1, “ANTIHISTAMINE COMPOUND, PREPARATION METHOD THEREFOR AND USE THEREOF” (HC Synthetic Pharmaceutical Co., Ltd., priority 2022, dated 2024) come the findings set out here.

The test system of series [1] is histamine-induced asthma in guinea pigs. The series can be described thus: Antiasthmatic effect on histamine-induced asthma in guinea pigs (latency period). Type of series: in vivo. The settings on record: X±s, n = 5; for Post-administration latency period: 1 mg/kg oral gavage, sixty minutes after administration, histamine hydrochloride spray, capped at 8 minutes. The procedure:
The guinea pigs were placed in a polymethyl methacrylate bell jar and a histamine hydrochloride solution was sprayed ultrasonically (0.8 mg/mL) for 40 seconds. The time point at which the guinea pigs developed asthma was recorded. The time of convulsion and fall was taken as the latency period. Guinea pigs with a latency period exceeding 180 seconds were not selected. […] The guinea pigs were administered by oral gavage at a dose of 2 mL/kg·bw. Sixty minutes after the administration, the guinea pigs were placed in bell jars, and histamine hydrochloride solution was sprayed under the same conditions as in the previous selection. The latency period for the onset of asthma was recorded. […] The results were processed statistically.

For series [2], the system named is isolated ileal smooth muscle of guinea pigs. The series can be described thus: Effect on muscle tone of isolated ileal smooth muscle of guinea pigs (no histamine added). As to conditions: X±s; for Smooth muscle tone After administration: 5 minutes after adding drug; for Antispasmodic percentage: relative to tone before adding compound, n = 8, 5 min. On the procedure: (§1) The guinea pig was knocked unconscious with a wooden stick, and the abdomen was immediately dissected to separate the ileum about 15 cm in length. The contents of the intestinal segment were flushed with Tyrode's solution and placed in Tyrode's solution at a constant temperature of 37°C for later use, and oxygen was supplied simultaneously. The experimental intestinal tract (1 cm in length) was cut and placed into 20 ml of Tyrode's solution at a constant temperature of 37°C with a continuous oxygen supply. One end of the intestine was fixed on the ventilation hook and the other end was connected to the muscle tone transducer and led to the computer interface. The muscle tone value of the ileal smooth muscle was recorded with a BL system. The experiment was carried out after the intestinal segment contraction became stable.
After the ileum contraction curve stabilized, the tone values before adding the drug were recorded, then the drug or DMSO was added, and the average tone value of the ileum contraction curve at that point was recorded 5 minutes later. The operation was repeated 8 times. The antispasmodic percentage was calculated according to the following formula. Antispasmodic percentage =; (Tone value before adding subject compound−Tone value after adding subject compound)/(Tone value before adding subject compound); × 100% [formula]

The nature of series [3]: Antagonism of histamine-induced contraction of isolated ileal smooth muscle of guinea pigs. As to conditions: relative to tone after adding histamine; x±s, n = 8; 3 min. The procedure:
as §1
(§2) After the ileal peristalsis curve stabilized, the tone values before adding the compound were recorded, and then 0.05 mL of histamine was added. […] The operation was repeated 8 times. The antispasmodic percentage was calculated using the following equation. Antispasmodic percentage =; (Tone value after adding histamine−Tone value after adding subject compound)/(Tone value after adding histamine) × 100% [formula]

For series [4], the system named is histamine. The description is as above. The settings on record: x±s, n = 8; for Smooth muscle tone After administration: 3 minutes after adding 0.05 mL compound following histamine. On the procedure: as §1, §2
A short description of series [5]: Accelerated stability test. It is filed as physicochemical. The settings on record: 40°C ± 2°C, relative humidity 75% ± 5%; for remaining at 730 h / remaining at 1460 h / remaining at 2190 h / remaining at 4380 h: storage 75% relative humidity, read-out: Content.
Series [6] is described as follows: Solubility of the compounds in water, methanol and isopropanol. It is filed as physicochemical. The settings on record: solvent water.
Experimental: The solubility in water, methanol, and isopropanol of the compounds of the present disclosure and the comparative compounds were measured separately.

On to `O=C1Cc2ccccc2C(=C2CCN(CCCOCOP(=O)(O)O)CC2)c2ccsc21` [Compound IV-7], for which the Post-administration latency period in series [1] is 373.33 ± 52.76 s. Besides, the “Smooth muscle tone After administration” value in series [2] (n = 8) was found to be 1.15 ± 0.25 g; in series [4], 1.17 ± 0.22 g. For the same compound, the Antispasmodic percentage in series [2] (5 min) is on record as 33.52±19.74%; in series [3], 65.99±19.08%.

`O=C1Cc2ccccc2C(=C2CCN(COP(=O)(O)O)CC2)c2ccsc21` [Compound IV-1] had a Post-administration latency period in series [1] of 368.83 ± 49.03 s. For the same compound, in series [2] (n = 8), the “Smooth muscle tone After administration” value is 1.14 ± 0.31 g. The compound also displayed an Antispasmodic percentage in series [2] (5 min) of 33.72±18.32%. Moreover, the Antispasmodic percentage in series [3] is 66.28±18.26%. The “Smooth muscle tone After administration” value in series [4] is 1.18 ± 0.24 g. In addition, in series [5] (Month 0), the Content is on record as 99.7%, the Description result is given as “White powder” and the Related substances is 0.03%. In addition, in series [5] (Month 1), the Description result is reported as “White powder”, the Related substances turned out to be 0.05% and the remaining at 730 h came to 99.7%. Moreover, in series [5] (Month 2), the Description entry was “White powder”, the Related substances was 0.09% and the remaining at 1460 h came out at 99.6%. Further, in series [5] (Month 3), the Description result is “White powder”, the Related substances is recorded as 0.12% and the remaining at 2190 h is 99.6%. In addition, in series [5] (Month 6), the Description entry is listed as “White powder”, the Related substances is listed as 0.24% and the remaining at 4380 h is 99.4%.

Turning to `O=C1Cc2ccccc2C(=C2CCN(CCOP(=O)(O)O)CC2)c2ccsc21` [Compound IV-2], the Post-administration latency period in series [1] is 380.27 ± 50.25 s. Further, in series [2] (n = 8), the “Smooth muscle tone After administration” value came to 1.19 ± 0.31 g. Besides, in series [2], the Antispasmodic percentage turned out to be 30.40±18.50%. The compound also had an Antispasmodic percentage in series [3] of 66.95±17.07%. For the same compound, the “Smooth muscle tone After administration” value in series [4] is 1.14 ± 0.23 g. Moreover, in series [5] (Month 0), the Content is reported as 99.7%, the Description entry is “White powder” and the Related substances is 0.03%. In series [5] (Month 1), the Description result is on record as “White powder”, the Related substances was found to be 0.04% and the remaining at 730 h is 99.7%. Also, in series [5] (Month 2), the Description result is reported as “White powder”, the Related substances was 0.04% and the remaining at 1460 h was 99.7%. In series [5] (Month 3), the Description result was “White powder”, the Related substances came out at 0.06% and the remaining at 2190 h came to 99.6%. Further, in series [5] (Month 6), the Description entry is on record as “White powder”, the Related substances is 0.09% and the remaining at 4380 h turned out to be 99.6%.

`CN1CCC(=C2c3ccccc3CC(=O)c3sccc32)CC1` [Ketotifen]: the “Solubility in Water” value in series [6] is “Practically insoluble”.

For the compound `O=C1Cc2ccccc2C(=C2CCN(CCCCOCOP(=O)(O)O)CC2)c2ccsc21` [Compound IV-8], in series [1], the Post-administration latency period is 370.23 ± 50.29 s. For the same compound, the “Smooth muscle tone After administration” value in series [2] (n = 8) was 1.14 ± 0.31 g; in series [4] it was 1.20 ± 0.25 g. In addition, the Antispasmodic percentage is 32.94±19.45% in series [2] (5 min) and 65.01±18.56% in series [3]. In series [5] (Month 0), this compound showed a Content of 99.7%. Also, the Description entry in series [5] (Month 0), in series [5] (Month 1), in series [5] (Month 2), in series [5] (Month 3) and in series [5] (Month 6) was “White powder” each time. For the same compound, the Related substances in series [5] (Month 0) is 0.03%; in series [5] (Month 1) it was 0.04%; in series [5] (Month 2) it was 0.05%; in series [5] (Month 3), 0.06%; in series [5] (Month 6) it was 0.09%. Moreover, the remaining at 730 h in series [5] (Month 1) came out at 99.7%. Besides, the remaining at 1460 h in series [5] (Month 2) came out at 99.7%. In series [5] (Month 3), the remaining at 2190 h was 99.6%. The remaining at 4380 h in series [5] (Month 6) turned out to be 99.6%.

As for `O=C1Cc2ccccc2C(=C2CCN(CCOCOP(=O)(O)O)CC2)c2ccsc21` [Compound IV-6], the Post-administration latency period in series [1] was determined as 370.56 ± 50.81 s. In series [2] (n = 8), the “Smooth muscle tone After administration” value turned out to be 1.17 ± 0.28 g. In series [2] (5 min), this compound displayed an Antispasmodic percentage of 31.17±19.54%. Besides, the Antispasmodic percentage in series [3] is listed as 66.56±19.45%. For the same compound, the “Smooth muscle tone After administration” value in series [4] is 1.15 ± 0.20 g. Besides, in series [5] (Month 0), the Content came out at 99.7%, the Description result was “White powder” and the Related substances was 0.03%. In series [5] (Month 1), the Description entry is recorded as “White powder”, the Related substances stood at 0.05% and the remaining at 730 h came out at 99.7%. Moreover, in series [5] (Month 2), the Description result was “White powder”, the Related substances is 0.09% and the remaining at 1460 h is 99.6%. For the same compound, in series [5] (Month 3), the Description entry is “White powder”, the Related substances came out at 0.12% and the remaining at 2190 h amounted to 99.6%. Besides, in series [5] (Month 6), the Description entry is “White powder”, the Related substances was 0.25% and the remaining at 4380 h amounted to 99.4%.

As to `O=C1Cc2ccccc2C(=C2CCN(CCCCCOP(=O)(O)O)CC2)c2ccsc21` [Compound IV-5], the Post-administration latency period in series [1] was 377.11 ± 50.43 s. Also, the “Smooth muscle tone After administration” value was determined as 1.14 ± 0.30 g in series [2] (n = 8) and 1.20 ± 0.22 g in series [4]. In addition, the Antispasmodic percentage is on record as 33.72±19.05% in series [2] (5 min) and 65.61±19.34% in series [3].

Compound `O=C1Cc2ccccc2C(=C2CCN(CCOCOP(=O)(O)O)CC2)c2ccsc21` [Compound III-6] had a Post-administration latency period in series [1] of 370.03 ± 52.11 s. Also, the Pre-administration latency period in series [1] (baseline before administration, histamine hydrochloride 0.8 mg/mL sprayed 40 seconds) worked out at 98.68 ± 49.22 s. Besides, the “Smooth muscle tone After administration” value was found to be 1.14 ± 0.30 g in series [2] (n = 8) and 1.22 ± 0.23 g in series [4]. Moreover, the “Smooth muscle tone Before administration” value in series [2] (baseline, n = 8) is 1.71 ± 0.24 g; in series [4] (baseline before histamine), 1.78 ± 0.20 g. The Antispasmodic percentage in series [2] was found to be 33.33±19.04%; in series [3], 64.43±17.18%. In addition, in series [4] (after 0.05 mL histamine, before compound), the “Smooth muscle tone After addition of histamine” value worked out at 3.43 ± 0.92 g.

In series [1], `O=C1Cc2ccccc2C(=C2CCN(CCCCOP(=O)(O)O)CC2)c2ccsc21` [Compound IV-4] showed a Post-administration latency period of 376.89 ± 51.43 s. Further, in series [2] (n = 8), the “Smooth muscle tone After administration” value amounted to 1.18 ± 0.26 g. This compound also registered an Antispasmodic percentage in series [2] (5 min) of 30.59±19.00%. The same compound had an Antispasmodic percentage in series [3] of 65.40±19.07%. Also, in series [4], the “Smooth muscle tone After administration” value is 1.19 ± 0.21 g. Also, in series [5] (Month 0), the Content turned out to be 99.7%, the Description entry is “White powder” and the Related substances came to 0.03%. In addition, in series [5] (Month 1), the Description entry is “White powder”, the Related substances is recorded as 0.05% and the remaining at 730 h turned out to be 99.7%. Besides, in series [5] (Month 2), the Description result is listed as “White powder”, the Related substances came out at 0.09% and the remaining at 1460 h worked out at 99.6%. Further, in series [5] (Month 3), the Description entry is recorded as “White powder”, the Related substances is recorded as 0.12% and the remaining at 2190 h was determined as 99.6%. Moreover, in series [5] (Month 6), the Description result is on record as “White powder”, the Related substances came to 0.25% and the remaining at 4380 h came to 99.4%.

In series [1], `O=C1Cc2ccccc2C(=C2CCN(CCCCCOCOP(=O)(O)O)CC2)c2ccsc21` [Compound IV-9] returned a Post-administration latency period of 369.11 ± 49.40 s. Also, the “Smooth muscle tone After administration” value in series [2] (n = 8) was 1.16 ± 0.28 g; in series [4] it was 1.15 ± 0.26 g. In addition, the Antispasmodic percentage in series [2] (5 min) worked out at 32.95±19.04%; in series [3], 66.57±18.66%.
